Measured values from publication PMC8945778, “Functional Characterization of Serotonin N-Acetyltransferase in Archaeon Thermoplasma volcanium” (Antioxidants, 2022).
pIC50: −log10 of the molar value.

Target: T1, TvSNAT (Thermoplasma volcanium, UniProt Q97CT7)
T1 construct: gene TVG0012647
Test: HPLC of N-acetylserotonin, dose-dependent inhibition of serotonin acetylation
Format: biochemical
Conditions: serotonin 0.5 mM; acetyl-CoA 0.5 mM; pH 8.8; 45 °C; suggested alternative substrate; 50% point read by authors, no fit; read-out: SNAT activity decreased to 50%

T1 sequence (Q97CT7 entry or part of it): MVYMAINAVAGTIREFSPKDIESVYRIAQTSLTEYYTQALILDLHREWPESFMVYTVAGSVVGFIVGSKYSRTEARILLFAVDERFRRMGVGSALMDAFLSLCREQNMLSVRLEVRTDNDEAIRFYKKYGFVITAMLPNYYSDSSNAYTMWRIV

| SMILES | pIC50 |
| --- | --- |
| NCCCCNCCCN [spermidine] | ~4.00 |
| NC[C@H](O)c1ccc(O)cc1 [octopamine] | ~3.30 |
